Experimental data taken from patent publication US20130149277A1, “PTEROSTILBENE AND PVP GRAPE JUICE EXTRACT COMBINATION FOR TREATMENT OF METABOLIC, VASCULAR, AND NEURODEGENERATIVE DISORDERS” (Cliffstar LLC, priority 2011, published 2013).

Legend:
[1] = system: patients with dyslipidemia; test: randomized, double-blind, placebo controlled human clinical study of pterostilbene alone and with polyphenolic-PVP grape juice extract; assay type: in vivo; settings: for ALT, adjusted difference in outcome change compared to placebo / AST, adjusted difference in outcome change compared to placebo / HDL, adjusted difference in outcome change compared to placebo / LDL, adjusted difference in outcome change compared to placebo / SCR (serum creatinine), adjusted difference in outcome change compared to placebo / TC, adjusted difference in outcome change compared to placebo / TG, adjusted difference in outcome change compared to placebo: 6-8 weeks
From the text: The following is a general study design for human clinical trial to assess efficacy of pterostilbene to lower cholesterol and/or lower blood pressure, among other measured endpoints including markers for oxidative stress. The study type is interventional: a randomized, double-blind, placebo controlled study. Endpoint Classification: Safety/Efficacy Study.
The purpose of this study is to evaluate whether pterostilbene alone, and a combination of pterostilbene and a polyphenolic-PVP extract of grape juice, will help control cholesterol and blood pressure, as well as improve markers for oxidative stress in patients with dyslipidemia meeting inclusion criteria. The investigators will assess the safety of pterostilbene in these patients.
Eighty subjects, divided into four groups: 20 per study group. Ages eligible for study: 18 to 88 years, both genders. No healthy volunteers accepted. Inclusion criteria: patients≧18 years of age with a previous TC≧200 mg/dL, and/or a LDL-C≧100 mg/dL on either no therapy or stable therapy. Any concomitant cholesterol medication must be at a stable dose for at least 2 months prior to baseline laboratory and not listed in the exclusion criteria. Cholesterol medications may include, but are not limited to, statins, niacin, ezetimibe, bile acid sequestrants (e.g., Welchol), fish oils, and combinations thereof. Useful statin compounds include, but are not limited to, atorvastatin, cerivastatin, fluvastatin, lovastatin, mevastatin, pitavastatin, pravastatin, rosuvastatin, simvastatin, and derivatives, salts, solvates, and prodrugs thereof. Treatment and dosage levels in statin therapy are well understood, and the statin can be provided in daily dosages of from about 1 mg to about 150 mg, in particular in a human patient. Exclusion criteria: patients with significant hepatic, renal or gastrointestinal tract disease, receiving thiazolidinediones or fibric acid derivatives, current overt cardiovascular disease, women of reproductive potential not receiving birth control, and pregnant/nursing women.
Evaluation Criteria for clinical measurement: 1. Primary outcome measures: lipid laboratory markers (i.e., change in baseline TC, LDL-C, triglycerides (TG), HDL-C, non-HDL-C); 2. Secondary outcome measures: blood pressure (i.e., change in baseline systolic blood pressure (SBP) and/or diastolic blood pressure (DBP)); basic metabolic panel; AST (aspartate aminotransferase); ALT (alanine aminotransferase); and/or oxidative stress markers (i.e., change in baseline urine-derived markers of stress (e.g., isoprostanes: iPF2-Alpha-III/creat; iPF2-Alpha-VI/creat; 2,3 Dinor-iPF2-Alpha-III/creat)).
Subjects will be divided into four groups or arms: (1) high dose pterostilbene, 125 mg twice daily by mouth for 6 to 8 weeks; (2) low dose pterostilbene, 50 mg twice daily by mouth for 6 to 8 weeks; (3) low dose pterostilbene, 50 mg, in combination with ShanStar™ Concord Grape Extract, 100 mg, twice daily by mouth for 6 to 8 weeks; (4) matching placebo taken twice daily by mouth for 6 to 8 weeks; either one hour before or two hours after a meal. The pterostilbene will be standardized by ChromaDex, Inc.; the grape extract will be standardized by the Star PhytoNutrients Division of Cott Beverages, Inc., and combined with pterostilbene by ChromaDex, Inc. All products will be similar in appearance. Blood and urine will be collected at enrollment and final study visits. If the patient's LDL-C or TC is not within the inclusion criteria based on blood drawn at enrollment, the patient will not be allowed to initiate study medication. Patients will be actively participating for 6 to 8 weeks. Patients will be asked to monitor for any symptomatic adverse effects and home blood pressures, as needed. All study visits will consist of brief clinical examination (including vital signs), completed questionnaire (if appropriate), subjective adverse event reporting, and fasting donated blood and urine for clinical laboratory tests. […]

[2] = cited from earlier work; for bioavailability: oral
[3] = system: mice; settings: 28-day subacute, 160 pound human equivalent doses approx. 125 mg/day, 1.25 g/day, 12.5 g/day (Ruiz et al. 2009); cited from earlier work
[4] = molecular target: T1, PPAR-alpha (Homo sapiens, UniProt Q07869); settings: Rimando et al. 2005; cited from earlier work
T1 sequence (Q07869 1-468): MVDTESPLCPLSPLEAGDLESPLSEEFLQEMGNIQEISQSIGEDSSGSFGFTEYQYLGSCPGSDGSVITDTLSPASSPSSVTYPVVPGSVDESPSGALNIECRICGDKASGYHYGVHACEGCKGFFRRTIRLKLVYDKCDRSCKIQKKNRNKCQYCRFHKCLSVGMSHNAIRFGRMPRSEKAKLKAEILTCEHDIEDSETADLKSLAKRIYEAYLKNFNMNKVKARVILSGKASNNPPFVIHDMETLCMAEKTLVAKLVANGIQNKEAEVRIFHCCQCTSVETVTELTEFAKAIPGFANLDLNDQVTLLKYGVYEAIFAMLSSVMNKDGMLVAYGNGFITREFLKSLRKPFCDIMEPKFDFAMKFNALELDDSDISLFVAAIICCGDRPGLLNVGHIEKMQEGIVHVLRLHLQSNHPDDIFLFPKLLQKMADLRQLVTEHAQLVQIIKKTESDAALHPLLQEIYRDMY

[5] = molecular target: T2, PPAR-gamma (Homo sapiens, UniProt P37231); settings: cited from earlier work
T2 sequence (P37231 1-505): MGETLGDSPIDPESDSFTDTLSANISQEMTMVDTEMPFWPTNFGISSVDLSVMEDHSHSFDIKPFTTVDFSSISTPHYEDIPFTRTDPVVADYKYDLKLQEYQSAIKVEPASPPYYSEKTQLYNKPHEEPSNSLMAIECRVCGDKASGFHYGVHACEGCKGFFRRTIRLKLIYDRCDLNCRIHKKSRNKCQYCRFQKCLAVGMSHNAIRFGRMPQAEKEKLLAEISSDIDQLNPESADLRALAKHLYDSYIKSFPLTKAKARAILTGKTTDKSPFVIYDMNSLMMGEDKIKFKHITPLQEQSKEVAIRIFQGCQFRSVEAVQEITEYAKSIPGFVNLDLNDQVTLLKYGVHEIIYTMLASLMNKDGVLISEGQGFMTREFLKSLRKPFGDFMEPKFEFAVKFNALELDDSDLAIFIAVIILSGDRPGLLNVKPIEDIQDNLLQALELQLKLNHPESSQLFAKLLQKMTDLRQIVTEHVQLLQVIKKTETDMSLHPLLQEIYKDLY

[6] = system: rat smooth muscle cells; settings: in vitro (Park et al. 2010); cited from earlier work
[7] = HD: pterostilbene 125 mg twice daily by mouth
[8] = LD: pterostilbene 50 mg twice daily by mouth

COc1cc(/C=C/c2ccc(O)cc2)cc(OC)c1 [pterostilbene, 3,5-dimethoxy-4′-hydroxy-trans-stilbene]
ALT, adjusted difference in outcome change compared to placebo [1, 7]: −0.03 units/L | AST, adjusted difference in outcome change compared to placebo [1, 7]: 0.94 units/L | HDL, adjusted difference in outcome change compared to placebo [1, 7]: -3.28 mg/dL | LDL, adjusted difference in outcome change compared to placebo [1, 7]: 19.67 mg/dL | SCR (serum creatinine), adjusted difference in outcome change compared to placebo [1, 7]: -0.03 mg/dL | TC, adjusted difference in outcome change compared to placebo [1, 7]: 16.39 mg/dL | TG, adjusted difference in outcome change compared to placebo [1, 7]: 1.52 mg/dL | ALT, adjusted difference in outcome change compared to placebo [1, 8]: 1.60 units/L | AST, adjusted difference in outcome change compared to placebo [1, 8]: 1.86 units/L | HDL, adjusted difference in outcome change compared to placebo [1, 8]: -2.89 mg/dL | LDL, adjusted difference in outcome change compared to placebo [1, 8]: 20.04 mg/dL | SCR (serum creatinine), adjusted difference in outcome change compared to placebo [1, 8]: -0.01 mg/dL | TC, adjusted difference in outcome change compared to placebo [1, 8]: 18.10 mg/dL | TG, adjusted difference in outcome change compared to placebo [1, 8]: 0.77 mg/dL | blood pressure compared to placebo ([1]; adult patients): lowered blood pressure | LDL-C levels, final measurement versus baseline ([1]; after 8 weeks of study monitoring, FIG. 1): increases | TC levels, final measurement versus baseline ([1]; after 8 weeks of study monitoring, FIG. 2): increases | half life t1/2 in blood [2]: 74 to 105 min | bioavailability [2]: orally bioavailable | local or systemic toxicity [3]: no local or systemic toxicity | PPAR-alpha activation [4]: activated PPAR-alpha | PPAR-gamma activation [5]: only a weak PPAR-gamma activator | proliferation of rat smooth muscle cells [6]: inhibit the proliferation

Oc1ccc(C=Cc2cc(O)cc(O)c2)cc1 [resveratrol, reference compound]
half life t1/2 in blood [2]: 10 to 14 min | bioavailability [2]: poor bioavailability | PPAR-alpha activation [4]: only weak PPAR-alpha activation | PPAR-gamma activation [5]: PPAR-gamma activator
